Laboratory results: the supplement of paper PMC13380429

How the values were obtained:
Conditions in all cases: 72 h
Caco-2 [1] = assay: drug sensitivity score (DSS) for viability; higher = more toxic; extreme values may be limits of the assay
Vero E6 [2] = assay: as above
HepG2 [3] = assay: as above
Calu-3 [4] = assay: as above
U2OS [5] = assay: as above
Caco-2 [6] = assay: cell viability relative to DMSO; higher = less toxic
Vero E6 [7] = assay: as above
HepG2 [8] = assay: as above
Calu-3 [9] = assay: as above
U2OS [10] = assay: as above
Caco-2 [11] = assay: relative viability EC50 (midpoint between 100% and the lowest measured viability); higher = less toxic
Vero E6 [12] = assay: as above
HepG2 [13] = assay: as above
Calu-3 [14] = assay: as above
U2OS [15] = assay: as above

Row | Structure (SMILES) | drug sensitivity score (Caco-2 [1]) | drug sensitivity score (Vero E6 [2]) | drug sensitivity score (HepG2 [3]) | drug sensitivity score (Calu-3 [4]) | drug sensitivity score (U2OS [5]) | cell viability (Caco-2 [6]; 1 nM) | cell viability (Caco-2 [6]; 10 nM) | cell viability (Caco-2 [6]; 100 nM) | cell viability (Caco-2 [6]; 1000 nM) | cell viability (Caco-2 [6]; 10000 nM) | cell viability (Vero E6 [7]; 1 nM) | cell viability (Vero E6 [7]; 10 nM) | cell viability (Vero E6 [7]; 100 nM) | cell viability (Vero E6 [7]; 1000 nM) | cell viability (Vero E6 [7]; 10000 nM) | cell viability (HepG2 [8]; 1 nM) | cell viability (HepG2 [8]; 10 nM) | cell viability (HepG2 [8]; 100 nM) | cell viability (HepG2 [8]; 1000 nM) | cell viability (HepG2 [8]; 10000 nM) | cell viability (Calu-3 [9]; 1 nM) | cell viability (Calu-3 [9]; 10 nM) | cell viability (Calu-3 [9]; 100 nM) | cell viability (Calu-3 [9]; 1000 nM) | cell viability (Calu-3 [9]; 10000 nM) | cell viability (U2OS [10]; 1 nM) | cell viability (U2OS [10]; 10 nM) | cell viability (U2OS [10]; 100 nM) | cell viability (U2OS [10]; 1000 nM) | cell viability (U2OS [10]; 10000 nM) | relative viability EC50 (Caco-2 [11]) | relative viability EC50 (Vero E6 [12]) | relative viability EC50 (HepG2 [13]) | relative viability EC50 (Calu-3 [14]) | relative viability EC50 (U2OS [15])
1 | O=c1[nH]c(=O)n([C@H]2CCCO2)cc1F (racemic) [ftorafur] | 0 | 0 | 0 | 0 | 0 | 93.5% | 103% | 106% | 90.7% | 100% | 96.1% | 103% | 91.2% | 102% | 108% | 87.2% | 111% | 91.5% | 110% | 113% | 96.5% | 95.2% | 93.9% | 94.4% | 99.2% | 99% | 95.9% | 102% | 98.1% | 105% | > 10 µM | > 10 µM | > 10 µM | > 10 µM | > 10 µM
2 | O=P(O)(O)C(O)(Cn1ccnc1)P(=O)(O)O [zoledronic-acid] | 0 | 0 | 0 | 0 | 0 | 98.2% | 95.1% | 96.8% | 93.2% | 91.6% | 99.7% | 104% | 100% | 98.9% | 99.3% | 101% | 98.7% | 95.2% | 97.7% | 94.1% | 110% | 100% | 91.9% | 93.4% | 97.7% | 96.5% | 96.2% | 100% | 99.3% | 97.2% | > 10 µM | > 10 µM | > 10 µM | > 10 µM | > 10 µM
3 | O[C@@](Cc1nc(CC2(C(F)(F)F)CC2)c[nH]1)(c1ccc(-n2cccn2)cc1)C(F)(F)F [MK-5046] | 0.1 | 0 | 0 | 0 | 0 | 102% | 115% | 98.8% | 97% | 88.4% | 97.8% | 96.7% | 98.5% | 100% | 98.2% | 99.5% | 101% | 104% | 94.7% | 96.6% | 107% | 95.3% | 105% | 110% | 87.5% | 96% | 96.9% | 92.8% | 96.3% | 90.8% | > 10 µM | > 10 µM | > 10 µM | > 10 µM | > 10 µM
4 | CSc1ccccc1OCC(O)CNC(C)C (stereo not given) [tiprenolol] | 0 | 0.3 | 0 | 0 | 0 | 108% | 102% | 93.6% | 83% | 113% | 100% | 98.5% | 98.6% | 91.8% | 86.7% | 98.6% | 92.6% | 102% | 99.9% | 98.5% | 104% | 106% | 100% | 97.3% | 103% | 97.9% | 96.2% | 106% | 101% | 99.3% | > 10 µM | > 10 µM | > 10 µM | > 10 µM | > 10 µM
5 | Cc1nccc2[nH]c(=O)ccc12 [medorinone] | 0 | 0 | 0 | 0 | 0 | 104% | 102% | 102% | 93.9% | 97.8% | 102% | 101% | 97% | 97.1% | 98.5% | 112% | 99.5% | 102% | 96.8% | 109% | 113% | 102% | 91% | 98.8% | 96.3% | 97.9% | 100% | 97.4% | 99.7% | 97.8% | > 10 µM | > 10 µM | > 10 µM | > 10 µM | > 10 µM
6 | CN1C(=O)N[C@H](Cc2c[nH]c3c(Cl)cccc23)C1=O [necrostatin-2] | 0 | 0 | 0 | 0 | 0 | 99% | 112% | 99.4% | 108% | 102% | 104% | 102% | 103% | 99.1% | 97.8% | 112% | 99.3% | 95.3% | 91.3% | 108% | 97.1% | 110% | 93.9% | 96.9% | 90.4% | 103% | 109% | 105% | 107% | 95.1% | > 10 µM | > 10 µM | > 10 µM | > 10 µM | > 10 µM
7 | Ic1cncc(OC[C@@H]2CCN2)c1 | 0 | 0 | 0 | 0 | 0 | 102% | 97.2% | 94% | 100% | 108% | 97.4% | 92.7% | 96.6% | 95.3% | 102% | 94% | 94% | 99.4% | 98% | 105% | 98.4% | 98.4% | 102% | 97% | 102% | 92.1% | 102% | 96.7% | 99.5% | 106% | > 10 µM | > 10 µM | > 10 µM | > 10 µM | > 10 µM
8 | N#Cc1cccc(-c2c[nH]c3ncnc(N4CCOCC4)c23)c1 | 0 | 0 | 0 | 0 | 0 | 104% | 98.2% | 105% | 107% | 118% | 98.1% | 96% | 98.9% | 97.7% | 95.9% | 89.8% | 99.8% | 102% | 105% | 106% | 99% | 104% | 103% | 99.6% | 115% | 106% | 99.2% | 102% | 98.5% | 105% | > 10 µM | > 10 µM | > 10 µM | > 10 µM | > 10 µM
9 | O=C(c1c(O)nc2cc(Cl)ccc2c1O)C1CC1 | 0 | 0 | 0 | 0 | 0 | 94.7% | 91.3% | 90.1% | 93.5% | 98.4% | 90.4% | 98.6% | 90.1% | 95.9% | 109% | 97.7% | 112% | 89.6% | 102% | 104% | 96.5% | 88.1% | 106% | 97.1% | 96.5% | 99.9% | 98.6% | 102% | 96% | 98.1% | > 10 µM | > 10 µM | > 10 µM | > 10 µM | > 10 µM
10 | O=C1c2c(O)cc(O)cc2O[C@H](c2ccc(O)c(O)c2)[C@H]1O [taxifolin] | 0 | 0 | 0 | 0 | 0 | 91.5% | 106% | 105% | 104% | 96% | 94.4% | 99.4% | 94.2% | 97.6% | 104% | 101% | 94.4% | 98.5% | 100% | 97.5% | 101% | 110% | 90.1% | 102% | 99.5% | 95.2% | 96.5% | 92.9% | 96.2% | 89.9% | > 10 µM | > 10 µM | > 10 µM | > 10 µM | > 10 µM
11 | O=C(O)Cc1ccc(OCCNC[C@H](O)c2ccccc2)cc1 [ZD-2079] | 0 | 0 | 0 | 0 | 0 | 92.1% | 102% | 104% | 99.3% | 95% | 104% | 100% | 98.8% | 102% | 100% | 109% | 110% | 107% | 101% | 94.3% | 98.5% | 92.7% | 105% | 98% | 96.2% | 102% | 94.8% | 107% | 98.5% | 104% | > 10 µM | > 10 µM | > 10 µM | > 10 µM | > 10 µM
12 | CCOc1ccc(-n2c([C@@H](C)N(Cc3cccnc3)C(=O)Cc3ccc(F)c(C(F)(F)F)c3)nc3ncccc3c2=O)cc1 (racemic) | 0 | 0 | 0 | 0 | 0 | 103% | 97.6% | 99.3% | 99.9% | 90% | 96% | 97.2% | 98.6% | 103% | 105% | 105% | 100% | 97.9% | 108% | 93.7% | 93.8% | 91% | 92.8% | 95.2% | 88.4% | 104% | 96% | 96.2% | 99.2% | 95.9% | > 10 µM | > 10 µM | > 10 µM | > 10 µM | > 10 µM
13 | CCNC1=Nc2ccc(Cl)cc2C(C)(c2ccccc2)O1 (stereo not given) [etifoxine] | 0 | 0 | 0 | 0 | 0 | 90.1% | 102% | 96.1% | 92.2% | 97.3% | 94.8% | 98.1% | 95.5% | 99.3% | 112% | 95.7% | 100% | 101% | 107% | 95.3% | 94.4% | 97.2% | 102% | 102% | 90.7% | 92.1% | 96.9% | 99.8% | 98.3% | 98% | > 10 µM | > 10 µM | > 10 µM | > 10 µM | > 10 µM
